Among the data in patent US20100280023A1, “THIAZOLE DERIVATIVES” (KYOWA HAKKO KOGYO CO., LTD., priority 2005, published 2010) are catalepsy remission rate, inhibition and melting point values, retold here.

The melting point is the temperature of the solid-liquid transition.

The subject of data set [1] is CGS21680-induced catalepsy. Kind of data set: Effect on CGS21680-induced catalepsy. It is filed as in vivo, male ddY mice. To be noted: mice; 10 mg/kg orally 30 minutes before i.c.v. CGS21680 10 μg/20 μL; scored 1 hour after administration; 80% or more judged active. The method, then:
Parkinson's disease is motor dysfunction based on the degeneration and cell death of the nigrostriatal dopaminergic neuron. […] Therefore, it is considered that the adenosine A2A receptor functions to promote the output of GABAergic neurons from the corpus striatum into the external segment of globus pallidus, and as a result, catalepsy is induced by the administration of CGS21680.
The experiment was carried out using 10 male ddY mice of 5 weeks of age (body weight, 22 to 25 g, by Nippon SLC) per group. CGS21680 (by Kyowa Hakko Kogyo) was dissolved in physiological saline (by Otsuka Pharmaceutical), and intracerebroventricularly injected to the mice in an amount of 10 μg/20 μL. The test compound was used by being suspended in distilled water containing 0.5 w/v % methyl cellulose 400 cP (hereinafter abbreviated as MC) (by Otsuka Pharmaceutical). […] At 1 hour after the administration of the test compound, the degree of catalepsy was measured with respect to each of the mice such that a pair of only forelimbs and a pair of only hindlimbs of each mouse were placed by turns on a vertically installed acrylic stand with a height of 4.5 cm and a width of 1.0 cm. […]
The catalepsy remission rate was calculated according to the following equation. […]

For data set [2], the target named is T1, Rat adenosine A2A receptor (Rattus norvegicus, UniProt P30543).
T1 construct: tissue Nippon SLC (animals); host or cells: rat (SD) corpus striatum membrane preparation
T1 sequence (P30543 whole entry): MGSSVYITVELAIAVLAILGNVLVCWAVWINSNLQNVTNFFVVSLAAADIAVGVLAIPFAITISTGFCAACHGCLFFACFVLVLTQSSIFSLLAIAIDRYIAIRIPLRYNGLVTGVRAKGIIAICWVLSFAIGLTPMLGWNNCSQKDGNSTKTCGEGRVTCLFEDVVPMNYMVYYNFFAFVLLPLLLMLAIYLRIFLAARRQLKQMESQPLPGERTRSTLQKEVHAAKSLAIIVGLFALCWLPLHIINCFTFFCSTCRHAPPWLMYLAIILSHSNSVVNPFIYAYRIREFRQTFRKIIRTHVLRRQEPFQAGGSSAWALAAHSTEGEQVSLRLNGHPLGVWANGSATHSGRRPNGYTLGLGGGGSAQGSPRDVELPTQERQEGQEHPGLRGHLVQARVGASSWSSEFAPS
Kind of data set: Adenosine A2A receptor binding test (3H-CGS21680 binding, rat corpus striatum membranes). Particulars: test compound 10^−7 mol/L, 25° C., 120 minutes, read-out: Rat adenosine A2A receptor binding inhibition rate (%) (10^−7 mol/L). The method, then: This test was carried out in a similar manner to a Bruns et al's method (Molecular Pharmacology, Vol. 29, p. 331, 1986).
Corpus striatum of a rat (SD rat, by Nippon SLC) was suspended in 50 mL of an ice-cooled 50 mmol/L tris(hydroxymethyl)aminomethane hydrochloride (Tris-HCl) buffer (pH 7.7) using a polytron homogenizer (by Kinematica). The resulting suspension was centrifuged (48,000×g, 20 minutes), and the resulting precipitate was resuspended by adding the same amount of a 50 mmol/L Tris-HCl buffer, followed by centrifugation under the same condition. The resulting final precipitate was suspended by adding a 50 mmol/L Tris-HCl buffer [containing 10 mmol/L magnesium chloride, adenosine deaminase 0.02 units/mg tissue (by Sigma)] thereto so that the tissue concentration was 5 mg (wet weight)/mL.
To 100 μl, of the above purified cell suspension, 80 μL (final concentration: […]) of tritium-labeled CGS-21680 {^3H-2-[p-(2-carboxyethyl)phenethylamino]-5′-(N-ethylcarboxamido)-adenosine: 40 curies/mmol: by New England Nuclear [The Journal of Pharmacology and Experimental Therapeutics, Vol. 251, p. 888, 1989]) and 20 μL of a test compound solution (10^−7 mol/L; a solution of a test compound in DMSO was diluted with a Tris-HCl buffer) were added. The resulting mixture was allowed to stand at 25° C. for 120 minutes, followed by rapid suction filtration through a glass fiber paper filter (GF/C; by Whatman). The filter was immediately washed three times with 200 μL of an ice-cooled 50 mmol/L Tris-HCl buffer. The glass fiber paper filter was transferred into a vial, Microscinti (by Perkin Elmer) was added thereto, and the radioactivity level was measured with Topcount (by Perkin Elmer).
The inhibition rate of the test compound to the adenosine A2A receptor binding (3H-CGS21680 binding) was calculated according to the following equation.
Inhibition rate (%)={1−[(Amount of binding in the presence of compound)−(Amount of non-specific binding)]/[(Amount of total binding)−(Amount of non-specific binding)]}×100
Amount of total binding means the ^3H-CGS21680 binding radioactivity content in the absence of the test compound. Amount of non-specific binding means the ^3H-CGS21680 binding radioactivity content in the presence of 100 μmol/L cyclopentyladenosine (CPA; by Sigma). Amount of binding in the presence of compound means the ^3H-CGS21680 binding radioactivity content in the presence of 10^−7 mol/L, of the test compound.

`O=C(c1sc(-c2nc3ncccc3[nH]2)nc1-c1ccco1)C1CCOCC1` [Compound 17, 4-(2-Furyl)-2-(imidazo[4,5-b]pyridin-2-yl)thiazol-5-yl tetrahydropyran-4-yl ketone] had a catalepsy remission rate in data set [1] of 100%.

On to `O=C(c1sc(-c2nc3cnccc3[nH]2)nc1-c1ccco1)C1CCOCC1` [Compound 18, 4-(2-Furyl)-2-(imidazo[4,5-c]pyridin-2-yl)thiazol-5-yl tetrahydropyran-4-yl ketone], for which the inhibition at 0.1 µM in data set [2] turned out to be 81%. Compound `COc1ccc(-c2c[nH]c(-c3nc(-c4ccco4)c(C(=O)C4CCOCC4)s3)n2)cc1` [Compound 19, 4-(2-Furyl)-2-[4-(4-methoxyphenyl)imidazol-2-yl]thiazol-5-yl tetrahydropyran-4-yl ketone] showed a melting point of 178 to 180 °C. The inhibition at 0.1 µM in data set [2] is 63%.

As for `O=C(c1ccccn1)c1sc(-c2nc3ccccc3[nH]2)nc1-c1ccco1` [Compound 24, 4-(2-Furyl)-5-(pyridin-2 ylcarbonyl)-2-(2-benzimidazolyl)thiazole], in data set [2], the inhibition at 0.1 µM is 94%. On the same count and under the same terms, with `O=C(c1ccccn1)c1sc(-c2nc3c([nH]2)CSCC3)nc1-c1ccco1` [Compound 29, 4-(2-Furyl)-5-(pyridin-2-ylcarbonyl)-2-(3,4,6,7-tetrahydrothiopyrano[3,4-d]imidazol-2-yl)thiazole] the figure was 90%. On the same count and under the same terms, for `O=C(Nc1ccccc1)c1nc(-c2ccco2)c(C(=O)C2CCOCC2)s1` [Compound 32, 4-(2 Furyl)-5-(tetrahydropyran-4-ylcarbonyl)thiazol-2-carboxylic acid phenylamide] the value was 26%; for `CC(C)CNC(=O)c1nc(-c2ccco2)c(C(=O)C2CCOCC2)s1` [Compound 33, 4-(2-Furyl)-5-(tetrahydropyran-4-ylcarbonyl)thiazol-2-carboxylic acid isobutylamide], 50%.
